What is called IC50 is the concentration that gives 50% inhibition.

Chain of DGKα (P23743 other isoform, or with tags, fused parts or gaps): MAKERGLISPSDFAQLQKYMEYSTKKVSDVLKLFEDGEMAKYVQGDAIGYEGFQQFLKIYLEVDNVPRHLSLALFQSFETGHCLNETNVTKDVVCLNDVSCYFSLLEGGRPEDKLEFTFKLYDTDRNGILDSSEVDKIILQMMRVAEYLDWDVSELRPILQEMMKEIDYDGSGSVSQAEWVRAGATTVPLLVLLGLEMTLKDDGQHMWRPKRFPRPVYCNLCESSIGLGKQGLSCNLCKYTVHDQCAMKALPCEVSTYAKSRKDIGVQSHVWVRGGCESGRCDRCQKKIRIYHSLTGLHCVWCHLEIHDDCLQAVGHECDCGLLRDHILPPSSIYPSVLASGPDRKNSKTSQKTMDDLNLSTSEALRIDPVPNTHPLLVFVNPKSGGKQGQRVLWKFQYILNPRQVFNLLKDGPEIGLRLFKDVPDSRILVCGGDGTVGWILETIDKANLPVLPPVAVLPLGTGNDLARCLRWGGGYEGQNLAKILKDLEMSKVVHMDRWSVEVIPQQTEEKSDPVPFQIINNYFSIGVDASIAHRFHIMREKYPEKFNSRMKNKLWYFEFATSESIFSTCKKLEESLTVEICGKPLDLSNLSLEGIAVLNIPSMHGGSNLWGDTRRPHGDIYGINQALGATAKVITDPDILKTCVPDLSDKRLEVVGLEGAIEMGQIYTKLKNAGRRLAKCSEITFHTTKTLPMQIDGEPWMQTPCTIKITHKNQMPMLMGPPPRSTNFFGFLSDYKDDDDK

This experiment has as its target DGKα (Homo sapiens (Human), UniProt P23743). The experiment can be described thus: Human DGKα kinase activity inhibition assay (ADP-Glo). The class given is biochemical. The conditions noted are these: recombinant full-length human DGKα, 55 μM ATP, 7 μM 1,2-dioleoyl-sn-glycerol, read-out: IC50 values of examples in in vitro human DGKa kinase activity inhibition assays. A digest of the protocol:
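Recombinant full-length human DGKα (C-terminal FLAG, from insect cells) phosphorylated 1,2-dioleoyl-sn-glycerol presented in octyl-glucopyranoside micelles. ADP formed was quantified by ADP-Glo luminescence. Compounds were added from 100-fold DMSO stocks.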
For orientation: ADP-Glo first removes unused ATP, then detects ADP through luciferase.
On to `Cn1c(=O)c(C(N)=O)c(N2CCC(c3nc4cc(F)c(F)cc4o3)CC2)c2ccccc21` [Example 109, 4-[4-(5,6-difluoro-1,3-benzoxazol-2-yl)piperidin-1-yl]-1-methyl-2-oxo-1,2-dihydroquinoline-3-carboxamide], for which the IC50 worked out at 2.1 nM. As for `COc1ccc2c(N3CCC(c4nc5ccccc5s4)CC3)c(C#N)c(=O)n(C)c2c1` [Example 240, 4-[4-(1,3-benzothiazol-2-yl)piperidin-1-yl]-7-methoxy-1-methyl-2-oxo-1,2-dihydroquinoline-3-carbonitrile], the IC50 was 2.5 nM. The result for `Cn1c(=O)c(C#N)c(N2CCC(c3nc4cc(Cl)ccc4s3)CC2)c2ccccc21` [Example 18, 4-[4-(5-chloro-1,3-benzothiazol-2-yl)piperidin-1-yl]-1-methyl-2-oxo-1,2-dihydroquinoline-3-carbonitrile] reads 3.7 nM. For `Cc1ccc2oc(C3CCN(c4c(C#N)c(=O)n(C)c5cc(OC6CCOC6)ccc45)CC3)nc2c1` (single isomer, unassigned) [Example 381, 1-methyl-4-[4-(5-methyl-1,3-benzoxazol-2-yl)piperidin-1-yl]-2-oxo-7[(oxolan-3-yl)oxy]-1,2-dihydroquinoline-3-carbonitrile] the value was 7.4 nM. The result for `Cn1c(=O)c(C#N)c(N2CCC(c3nc4cc(F)c(F)cc4o3)CC2)c2ccccc21` [Example 22, 4-[4-(5,6-difluoro-1,3-benzoxazol-2-yl)piperidin-1-yl]-1-methyl-2-oxo-1,2-dihydroquinoline-3-carbonitrile] reads 6 nM; that for `Cn1c(=O)c(C#N)c(N2CCC(c3nc4ccccc4o3)CC2)c2cc(C#N)ccc21` [Example 175, 4-[4-(1,3-benzoxazol-2-yl)piperidin-1-yl]-1-methyl-2-oxo-1,2-dihydroquinoline-3,6-dicarbonitrile], 4.2 nM; that for `Cc1ccc2oc(C3CCN(c4c(C#N)c(=O)n(C)c5cc(N(C)CC#N)ccc45)CC3)nc2c1` [Example 401, 7-[(cyanomethyl)(methyl)amino]-1-methyl-4-[4-(5-methyl-1,3-benzoxazol-2-yl)piperidin-1-yl]-2-oxo-1,2-dihydroquinoline-3-carbonitrile], 0.8 nM. With `Cn1c(=O)c(C#N)c(N2CCC(c3nc4ccccc4o3)CC2)c2ccc(C(F)(F)F)cc21` [Example 291, 4-[4-(1,3-benzoxazol-2-yl)piperidin-1-yl]-1-methyl-2-oxo-7-(trifluoromethyl)-1,2-dihydroquinoline-3-carbonitrile], the IC50 came to 11 nM. For `Cc1ccc2oc(C3CCN(c4c(C(N)=O)c(=O)n(C)c5ccc(Br)cc45)CC3)nc2c1` [Example 492, 6-bromo-1-methyl-4-[4-(5-methyl-1,3-benzoxazol-2-yl)piperidin-1-yl]-2-oxo-1,2-dihydroquinoline-3-carboxamide] the value was 1.5 nM; for `CC(C)c1ccc2oc(C3CCN(c4c(C#N)c(=O)n(C)c5ccc(Br)cc45)CC3)nc2c1` [Example 170, 6-bromo-1-methyl-2-oxo-4-{4-[5-(propan-2-yl)-1,3-benzoxazol-2-yl]piperidin-1-yl}-1,2-dihydroquinoline-3-carbonitrile], 7.2 nM.

As to `Cn1c(=O)c(C#N)c(N2CCC(c3nc4ccccc4s3)CC2)c2ccc(N3CCCC3=O)cc21` [Example 36, 4-[4-(1,3-benzothiazol-2-yl)piperidin-1-yl]-1-methyl-2-oxo-7-(2-oxopyrrolidin-1-yl)-1,2-dihydroquinoline-3-carbonitrile], the IC50 came out at 8.3 nM. For `Cn1nccc1C1CCN(c2c(C#N)c(=O)n(C)c3ccccc23)CC1` [Example 149, 1-methyl-4-[4-(1-methyl-1H-pyrazol-5-yl)piperidin-1-yl]-2-oxo-1,2-dihydroquinoline-3-carbonitrile] the value was 1100 nM; for `Cc1ccc2oc(C3CCN(c4c(C(N)=O)c(=O)n(C)c5cc(OCC(N)=O)ccc45)CC3)nc2c1` [Example 508, 7-(2-amino-2-oxoethoxy)-1-methyl-4-[4-(5-methyl-1,3-benzoxazol-2-yl)piperidin-1-yl]-2-oxo-1,2-dihydroquinoline-3-carboxamide], 1.4 nM; for `Cc1ccccc1-c1noc(C2CCN(c3c(C(N)=O)c(=O)n(C)c4ccccc34)CC2)n1` [Example 458, 1-methyl-4-{4-[3-(2-methylphenyl)-1,2,4-oxadiazol-5-yl]piperidin-1-yl}-2-oxo-1,2-dihydroquinoline-3-carboxamide], 4.3 nM. In the case of `CN1CCN(c2ccc(C3CCN(c4c(C#N)c(=O)n(C)c5ccccc45)CC3)cc2)C(=O)C1` [Example 66], the IC50 amounted to 78 nM.

`Cn1c(=O)c(C(N)=O)c(N2CCC(c3ccc4c(c3)CC(O)C4)CC2)c2ccccc21` (centres unmarked) [Example 467, 4-[4-(2-hydroxy-2,3-dihydro-1H-inden-5-yl)piperidin-1-yl]-1-methyl-2-oxo-1,2-dihydroquinoline-3-carboxamide]: the IC50 was found to be 3.9 nM. Regarding `Cc1ccc2oc(C3CCN(c4c(C#N)c(=O)n(C)c5cc(Cl)ccc45)CC3)nc2c1` [Example 229, 7-chloro-1-methyl-4-[4-(5-methyl-1,3-benzoxazol-2-yl)piperidin-1-yl]-2-oxo-1,2-dihydroquinoline-3-carbonitrile], the IC50 came out at 3 nM. Take `COC1(c2cccc(Cl)c2)CCN(c2c(C#N)c(=O)n(C)c3ccccc23)CC1` [Example 336, 4-[4-(3-chlorophenyl)-4-methoxypiperidin-1-yl]-1-methyl-2-oxo-1,2-dihydroquinoline-3-carbonitrile]: the IC50 stood at 80 nM. For `Cn1c(=O)c(C#N)c(N2CCC(c3ccn(-c4ccc(Cl)cc4)n3)CC2)c2ccccc21` [Example 369, 4-{4-[1-(4-chlorophenyl)-1H-pyrazol-3-yl]piperidin-1-yl}-1-methyl-2-oxo-1,2-dihydroquinoline-3-carbonitrile] the value was 14 nM; for `Cn1c(=O)oc2cc(C3CCN(c4c(C#N)c(=O)n(C)c5ccccc45)CC3)ccc21` [Example 362, 1-methyl-4-[4-(3-methyl-2-oxo-2,3-dihydro-1,3-benzoxazol-6-yl)piperidin-1-yl]-2-oxo-1,2-dihydroquinoline-3-carbonitrile], 106 nM. With `Cc1ccc2oc(C3CCN(c4c(C(N)=O)c(=O)n(C)c5c(Cl)cccc45)CC3)nc2c1` [Example 319, 8-chloro-1-methyl-4-[4-(5-methyl-1,3-benzoxazol-2-yl)piperidin-1-yl]-2-oxo-1,2-dihydroquinoline-3-carboxamide], the IC50 is 74 nM. `Cn1c(=O)c(C#N)c(N2CCC(c3ccc(Br)cc3)CC2)c2ccccc21` [Example 88, 4-[4-(4-bromophenyl)piperidin-1-yl]-1-methyl-2-oxo-1,2-dihydroquinoline-3-carbonitrile]: the IC50 stood at 47 nM. For `COc1ccc2c(N3CCC(c4nc5ccc(Cl)cc5o4)CC3)c(C#N)c(=O)n(C)c2c1` [Example 258, 4-[4-(6-chloro-1,3-benzoxazol-2-yl)piperidin-1-yl]-7-methoxy-1-methyl-2-oxo-1,2-dihydroquinoline-3-carbonitrile], the IC50 is 29 nM.

For the molecule `Cc1ccc2oc(C3CCN(c4c(C(N)=O)c(=O)n(C)c5cc([N+](=O)[O-])c(C)cc45)CC3)nc2c1` [Example 510, 1,6-dimethyl-4-[4-(5-methyl-1,3-benzoxazol-2-yl)piperidin-1-yl]-7-nitro-2-oxo-1,2-dihydroquinoline-3-carboxamide], the IC50 was found to be 70 nM. Consider `CCCc1noc(C2CCN(c3c(C#N)c(=O)n(C)c4ccccc34)CC2)n1` [Example 148, 1-methyl-2-oxo-4-[4-(3-propyl-1,2,4-oxadiazol-5-yl)piperidin-1-yl]-1,2-dihydroquinoline-3-carbonitrile], for which the IC50 worked out at 369 nM. The result for `Cn1c(=O)c(C#N)c(N2CCC(c3nc4ccccc4o3)CC2)c2ccc(Br)cc21` [Example 27, 4-[4-(1,3-benzoxazol-2-yl)piperidin-1-yl]-7-bromo-1-methyl-2-oxo-1,2-dihydroquinoline-3-carbonitrile] reads 2 nM. For `Cn1c(=O)c(C#N)c(N2CCC(c3ccc(S(C)(=O)=O)cc3)CC2)c2ccccc21` [Example 65, 4-{4-[4-(methanesulfonyl)phenyl]piperidin-1-yl}-1-methyl-2-oxo-1,2-dihydroquinoline-3-carbonitrile] the value was 74 nM. On to `COCCOc1ccc2c(N3CCC(c4nc5cc(C)ccc5o4)CC3)c(C#N)c(=O)n(C)c2c1` [Example 383, 7-(2-methoxyethoxy)-1-methyl-4-[4-(5-methyl-1,3-benzoxazol-2-yl)piperidin-1-yl]-2-oxo-1,2-dihydroquinoline-3-carbonitrile], for which the IC50 worked out at 5.1 nM.

Take `Cc1ccc2oc(C3(F)CCN(c4c(C(N)=O)c(=O)n(C)c5cc(OC6CCOC6)ccc45)CC3)nc2c1` (centres unmarked) [Example 509, 4-[4-fluoro-4-(5-methyl-1,3-benzoxazol-2-yl)piperidin-1-yl]-1-methyl-2-oxo-7-[(oxolan-3-yl)oxy]-1,2-dihydroquinoline-3-carboxamide]: the IC50 worked out at 2 nM.

Regarding `CCCOc1cccc2c(N3CCC(C)(c4nc5cc(C)ccc5o4)CC3)c(C#N)c(=O)n(C)c12` [Example 273, 1-methyl-4-[4-methyl-4-(5-methyl-1,3-benzoxazol-2-yl)piperidin-1-yl]-2-oxo-8-propoxy-1,2-dihydroquinoline-3-carbonitrile], the IC50 stood at 119 nM.

For `Cn1c(=O)c(C#N)c(N2CCC(c3nc4ccccc4o3)CC2)c2cc(F)ccc21` [Example 206, 4-[4-(1,3-benzoxazol-2-yl)piperidin-1-yl]-6-fluoro-1-methyl-2-oxo-1,2-dihydroquinoline-3-carbonitrile], the IC50 worked out at 0.8 nM. For `CNC(=O)c1c(N2CCC(c3nc4ccccc4o3)CC2)c2ccccc2n(C)c1=O` [Example 447, 4-[4-(1,3-benzoxazol-2-yl)piperidin-1-yl]-N,1-dimethyl-2-oxo-1,2-dihydroquinoline-3-carboxamide] the value was 63 nM.

These data come from patent US11998539B2, “Substituted aminoquinolones as DGKalpha inhibitors for immune activation” (Bayer Aktiengesellschaft, priority 2019, dated 2024).
